# Assay results published in patent publication US9891156B2, “Method for determining the permeation of a permeant through a membrane” (Paraytec Limited, priority 2014, dated 2018).
# Test: Rapid in vitro release testing of ibuprofen gel by UV/VIS area imaging
# Format: in vitro ADME
# Details: calculated comparison value; extinction coefficient 1.5 dm^3 g^−1 cm^−1
# From the text: Measurements were made by switching the LED source of UV irradiation 51 and the LED source of VIS irradiation 52 and imaging at a frame rate of 2 Hz. […] Imaging is typically carried out alternately at a first wavelength where the API absorbs light (280 or 255 nm) and a second wavelength where there is no absorption (505 nm). […] The sample assembly 20 further comprises a fused silica elongate cuvette 22 which is cuboidal and open at the upper end with a width of 7 mm, a depth of 4 mm and a wall thickness of 1 mm. […] The fused silica elongate cuvette 22 is inserted vertically inside the elongate receptor cell 24 and is capped at a lower end with a membrane 21 which is glued in place. […] The sample assembly 20 further comprises an elongate substantially planar holder 30 for the API formulation 13 (the donor phase) which is slidably inserted in the fused silica elongate cuvette 22. The elongate substantially planar holder 30 projects beyond an upper end 22a of the fused silica elongate cuvette 22 to facilitate removal. […] The vertical bar (z direction) was used for measurement of the absorbance profiles spanning the donor phase, the membrane and the receptor phase (see FIGS. 3B to D).
structure (smiles),measurement,value
CC(C)Cc1ccc(C(C)C(=O)O)cc1 (stereo not shown) [ibuprofen],"Depletion value of the donor phase calculated from path length, ibuprofen concentration in the gel and literature extinction coefficient",−1.5 AU
